# Experimental data published in ChEMBL document CHEMBL1128852, “Butyrophenone analogues: Synthesis of 2-methyl-3-ethyl-5-aminoethyl-4,5,6,7-tetrahydroindol-4-ones, and their affinities for d1, d2 and 5-ht2a receptors” (Bioorg Med Chem Lett, 1995).
# Experiments:
# [1] = biological target: 5-hydroxytryptamine receptor 2A (Rattus norvegicus, UniProt P14842); experiment: Inhibition constant for in vitro inhibition of [3H]ketanserin binding to rat frontal cortex membranes 5-hydroxytryptamine 2A receptor; format: cell membranes, Membrane
# 5-hydroxytryptamine receptor 2A, sequence (P14842 whole entry): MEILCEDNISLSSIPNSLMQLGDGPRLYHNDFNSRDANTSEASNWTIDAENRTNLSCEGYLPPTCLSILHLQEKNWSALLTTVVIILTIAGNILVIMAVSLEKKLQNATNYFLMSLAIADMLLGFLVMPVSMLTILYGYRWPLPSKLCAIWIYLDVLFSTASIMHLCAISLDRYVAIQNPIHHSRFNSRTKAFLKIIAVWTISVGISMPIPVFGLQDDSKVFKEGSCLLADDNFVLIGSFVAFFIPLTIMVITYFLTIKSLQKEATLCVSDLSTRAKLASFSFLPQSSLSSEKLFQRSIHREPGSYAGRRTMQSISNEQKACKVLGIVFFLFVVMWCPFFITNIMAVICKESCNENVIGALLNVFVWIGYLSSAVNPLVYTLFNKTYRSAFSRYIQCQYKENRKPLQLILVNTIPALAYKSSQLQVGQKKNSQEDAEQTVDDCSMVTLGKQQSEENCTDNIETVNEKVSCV
# Rattus norvegicus [2] = species: Rattus norvegicus; experiment: (§1) Competitive antagonism against serotonin-induced contractions in rat aorta ring stripped of endothelium; format: functional; conditions: read-out: pA2 (converted)
# D(2) dopamine receptor = D(2) dopamine receptor (Rattus norvegicus, UniProt P61169); experiment: Inhibition constant for in vitro inhibition of [3H]spiperone binding to striatal membranes Dopamine receptor D2
# D(2) dopamine receptor, sequence (P61169 whole entry): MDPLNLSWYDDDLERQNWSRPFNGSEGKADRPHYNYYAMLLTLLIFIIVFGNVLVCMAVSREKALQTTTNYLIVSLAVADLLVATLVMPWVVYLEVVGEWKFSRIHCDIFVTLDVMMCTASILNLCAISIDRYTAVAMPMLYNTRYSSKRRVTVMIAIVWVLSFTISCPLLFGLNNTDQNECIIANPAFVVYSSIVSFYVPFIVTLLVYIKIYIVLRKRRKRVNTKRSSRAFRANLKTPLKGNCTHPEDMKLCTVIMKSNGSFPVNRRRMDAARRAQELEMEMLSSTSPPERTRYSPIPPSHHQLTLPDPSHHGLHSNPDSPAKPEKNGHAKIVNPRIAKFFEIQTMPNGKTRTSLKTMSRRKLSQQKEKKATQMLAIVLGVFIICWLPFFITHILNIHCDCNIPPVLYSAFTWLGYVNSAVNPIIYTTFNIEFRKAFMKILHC
# D(1A) dopamine receptor = D(1A) dopamine receptor (Rattus norvegicus, UniProt P18901); experiment: Inhibition constant for in vitro inhibition of [3H]-SCH- 23390 binding to striatal membranes Dopamine receptor D1; design: species or system Striatum, Membrane
# D(1A) dopamine receptor, sequence (P18901 whole entry): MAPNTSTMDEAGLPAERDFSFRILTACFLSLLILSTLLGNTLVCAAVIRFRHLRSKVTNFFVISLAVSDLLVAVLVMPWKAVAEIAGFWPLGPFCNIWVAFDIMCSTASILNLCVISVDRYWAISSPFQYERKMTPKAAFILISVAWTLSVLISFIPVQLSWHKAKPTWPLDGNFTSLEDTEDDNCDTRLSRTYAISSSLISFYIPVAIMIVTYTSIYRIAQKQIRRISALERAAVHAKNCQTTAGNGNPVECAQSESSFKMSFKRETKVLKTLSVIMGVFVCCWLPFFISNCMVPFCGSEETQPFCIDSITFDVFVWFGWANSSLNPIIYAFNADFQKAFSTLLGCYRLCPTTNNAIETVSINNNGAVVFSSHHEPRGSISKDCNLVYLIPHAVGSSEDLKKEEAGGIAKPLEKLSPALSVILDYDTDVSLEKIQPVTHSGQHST
# Rattus norvegicus [3] = species: Rattus norvegicus; experiment: as §1; conditions: read-out: pA2 (converted)
SMILES,Ki [1] [nM],Kb (Rattus norvegicus [2]) [nM],Ki (D(2) dopamine receptor) [nM],Ki (D(1A) dopamine receptor) [nM],Kb (Rattus norvegicus [3]) [nM]
CCc1c(C)[nH]c2c1C(=O)C(CCN1CCN(c3ccccc3OC)CC1)CC2 (centres undefined),91.2,31.6,28.2,1170,–
CCc1c(C)[nH]c2c1C(=O)C(CCN1CCOCC1)CC2 (centres undefined),912,–,589,2140,105
CCc1c(C)[nH]c2c1C(=O)C(CN1CCOCC1)CC2 (centres undefined) [MOLINDONE],–,–,–,1580,–
